Assay [1] relates to normal human citrated plasma. Description: activated partial thromboplastin time (APTT). It counts as biochemical. As for the experimental part: (§1) The influence of the various peptide formulations used in the present invention on established coagulation-based assays was determined. The activated partial thromboplastin time (APTT) is performed by mixing 0.05 ml normal human citrated plasma with 0.05 ml activated partial thromboplastin reagent purchased from Organon Teknika, Research Triangle Park, NC in the absence or presence of a peptide inhibitor. After incubation for 5 min at 37° C., the mixture is recalcified with 0.05 ml of 30 mM calcium chloride and the time to clot formation is measured in an Amelung KC4A instrument (Sigma Chemical Corp, St. Louis, Mo.) (Hasan et al. Thrombosis and Haemostasis. 82, 1182-1187 (1999)). The prothrombin time (PT) is performed by mixing 0.05 ml normal human citrated plasma with 0.05 ml Simplastin (Organon Teknika, Research Triangle Park, NC) followed by incubation for 3 min at 37° C. in the absence or presence of a peptide inhibitor. At the addition of 0.05 ml of 30 mM calcium chloride, the time to clot formation is measured in an KC4A instrument (Sigma Chemical Corp, St. Louis, Mo.) (Hasan et al. Thrombosis and Haemostasis. 82, 1182-1187 (1999)). The thrombin clotting time (TCT) is performed by adding 0.1 ml normal human citrated plasma in the absence or presence of a peptide inhibitor and 0.05 ml of a α-thrombin solution such that the final concentration of the thrombin in the entire mixture was 1 nM. Upon addition of the thrombin, the time to clot formation is measured in an KC4A instrument (Sigma Chemical Corp, St. Louis, Mo.).

The test system of assay [2] is normal human citrated plasma. Description: prothrombin time (PT). The class given is biochemical. As for the experimental part: as §1
Assay [3] has as its system normal human citrated plasma. Description: thrombin clotting time (TCT). As to conditions: 1 nM thrombin. It counts as biochemical. The procedure: as §1
The subject of assay [4] is γ-thrombin-induced platelet aggregation. The assay is described as follows: γ-thrombin-induced platelet aggregation in human platelet-rich plasma. It counts as cell-based. As to conditions: for Concentration of Peptide [mM] That Gives 100% Inhibition: 40 nM human gamma thrombin, human platelet-rich plasma; for concentration that abolished γ-thrombin-induced platelet aggregation: 40 nM γ-thrombin. As for the experimental part: Fresh whole blood was collected and mixed with 0.013 M sodium citrate and platelet-rich plasma was prepared according to the method of Meloni et al., J. Biol. Chem. 266, 6786 (1991). Platelet-rich plasma with a normalized platelet count between 2-2.5×10^8 platelets/ml was added to a cuvette of an aggregometer (Chronlog Corp., Havertown, Pa.), standardized using the protocol of Meloni et al., supra. Peptides to be examined were added to the cuvette and the mixture stabilized for a few moments. Once the baseline was stabilized, γ-thrombin (10-70 nM) (Haematologic Technologies, Essex Junction, Vt.) was added to determine the minimal concentration of the agonist necessary to achieve full platelet aggregation. All investigations with peptides were performed using threshold concentrations of γ-thrombin. Aggregation was allowed to proceed for 5 minutes before stopping.
Table III is a tabulation of the library of peptides prepared and their influence on γ-thrombin-induced platelet aggregation in platelet-rich plasma. […] The numbers in the column represent the minimal concentration (mM) of the peptide that blocked 100% γ-thrombin-induced platelet aggregation of platelets in human platelet-rich plasma.
Human platelet samples were stimulated with 40 nM human gamma thrombin in each experiment.

The target in assay [5] is γ-thrombin. The assay is described as follows: inhibition of γ-thrombin hydrolysis of chromogenic substrate. The class given is biochemical, human. To be noted: read-out: Ki (μM) + SD, γIIa (2 nM), gamma-thrombin 2 nM, Sar-Pro-Arg-paranitroanilide.
For assay [6], the system named is normal human lung fibroblasts (NHLF). Description: α-thrombin-induced calcium mobilization in normal human lung fibroblasts. The class given is cell-based. As to conditions: 2 nM alpha thrombin. As for the experimental part:
The second assay developed to assess peptides from the combinatorial libraries uses inhibition of α-thrombin-induced calcium mobilization in fibroblasts. Normal human lung fibroblasts (NHLF) were purchased from Clonetics, San Diego, Calif., an affiliate of Bio-Wittaker, Walkersville, Md. The cytoplasmic free Ca^2+ concentration ([Ca^2+]i) was measured using the fluorescent Ca^2+ indicator fura-2 (Molecular Probes, Inc., Eugene, Oreg.). Suspension of fibroblasts in Hepes-Tyrode's buffer were loaded with fura-2 by incubation at 37° C. with 2 μM fura-2/acetoxymethyl ester for 45 minutes according to the method of Rasmussen et al., J. Biol. Chem. 268, 14322 (1993). The labeled fibroblasts were separated from excess probe by washing by centrifugation at 1000 rpm (180 xg). Aliquots of the labeled fibroblasts were transferred into a quartz cuvette with a magnetic stirrer, which was then placed in a thermostatically controlled chamber at 37° C. in a fluorescence spectrophotometer (Perkin-Elmer LS50B spectrofluorometer, Chicago, Ill.). Reagents, test peptide, and α-thrombin (0.25-2 nM), were sequentially added directly to the cuvette. The excitation wavelengths varied between 340 and 380 nm. Fluorescence was measured by recording emitted light at 510 nm as reported by Fisher et al., Mol Pharm. 35, 195 (1989). The minimum emission was determined on a solubilized fibroblast sample in the presence of 10 mM EDTA; maximum emission was determined on the same sample with 10 mM Ca^2+ added. The intrafibroblast free Ca^2+ concentration was calculated by the method of Grykiewicz et al., J. Biol. Chem. 260, 3440 (1985). The ratio of the fluorescence readings was calculated as R=340/380 nm and processed according to the equation [Ca^2+]i=KD((R−Rmin)/Rmax−R))(Sf2/Sb2) to determine the intrafibroblast free Ca^2+ concentration. The KD for fura-2 was assumed to be 224 nM. Rmax and Rmin are the maximum and minimum fluorescence ratios measured at the end of the experiment, respectively; Sf2 and Sb2 are the fluorescence values at 380 nm in the absence and presence of saturating [Ca^2+], respectively. The reaction was monitored for 3-5 minutes.

Assay [7] addresses human α-thrombin (Homo sapiens, UniProt P00734). Description: inhibition of α-thrombin hydrolysis of chromogenic substrate. The class given is biochemical. As to conditions: Ki (μM) + SD, αIIa (2 nM), alpha-thrombin 2 nM, Sar-Pro-Arg-paranitroanilide.

Where two headings read alike, the source gives them in different places. Where a SMILES comes first, the peptide text is derived from it.

Take `C[C@@H](NC(=O)[C@@H]1CCCN1C(=O)[C@@H]1C[C@@H]2CCCC[C@@H]2N1C(=O)[C@H](N)CCCNC(=N)N)C(=O)N[C@@H](Cc1ccc([N+](=O)[O-])cc1)C(N)=O` [rOicPaF(p-NO2), D-Arg-Oic-Pro-D-Ala-Phe(p-NO2)] (HELM PEPTIDE1{[dR].[O=C([C@@H]1C[C@@H]2CCCC[C@@H]2N1[*:1])[*:2]].P.[dA].[O=C([C@H](Cc1ccc([N+](=O)[O-])cc1)N[*:1])[*:2]].[am]}$$$$V2.0; N-terminus assumed): the “peptide concentration with significant prolongation (p<0.05) of the APTT” value in assay [1] was found to be 50 µM. The “peptide concentration with significant prolongation (p<0.05) of the PT” value in assay [2] worked out at 6.25 µM. Moreover, the “peptide concentration with significant prolongation (p<0.05) of the TCT” value in assay [3] amounted to 1.56 µM. Further, in assay [4], the “Concentration of Peptide [mM] That Gives 100% Inhibition” value is 0.033 mM and the “concentration that abolished γ-thrombin-induced platelet aggregation” value was 33 µM. Moreover, in assay [5] (listed as rOicPsF(p-NO2)), the Ki stood at 87.9 ± 16 µM. Moreover, the “inhibition of thrombin-induced calcium mobilization” value in assay [6] (0.005 mM peptide) is recorded as 26%. For the same compound, in assay [6] (0.02 mM peptide), the “inhibition of thrombin-induced calcium mobilization” value turned out to be 47%.

`C[C@@H](NC(=O)[C@@H]1CCCN1C(=O)[C@@H]1C[C@@H]2CCCC[C@@H]2N1C(=O)[C@H](N)CCCNC(=N)N)C(=O)N[C@@H](Cc1ccc(Br)cc1)C(N)=O` [rOicPaF(p-Br), D-Arg-Oic-Pro-D-Ala-Phe(p-Br)] (HELM PEPTIDE1{[dR].[O=C([C@@H]1C[C@@H]2CCCC[C@@H]2N1[*:1])[*:2]].P.[dA].[O=C([C@H](Cc1ccc(Br)cc1)N[*:1])[*:2]].[am]}$$$$V2.0): the “peptide concentration with significant prolongation (p<0.05) of the APTT” value in assay [1] was found to be 12.5 µM. In addition, the “peptide concentration with significant prolongation (p<0.05) of the PT” value in assay [2] is 6.25 µM. The “peptide concentration with significant prolongation (p<0.05) of the TCT” value in assay [3] came out at 0.78 µM. For the same compound, the “Concentration of Peptide [mM] That Gives 100% Inhibition” value in assay [4] was 0.018 mM. In assay [4], the “concentration that abolished γ-thrombin-induced platelet aggregation” value is 18 µM. Moreover, the Ki in assay [5] is 48.7 ± 7 µM; in assay [7] it was 6.4 to 10.6 µM. The “inhibition of thrombin-induced calcium mobilization” value in assay [6] (0.005 mM peptide) is reported as 35%; in assay [6] (0.02 mM peptide), 84%.

For the compound `C[C@@H](NC(=O)[C@@H]1CCCN1C(=O)[C@@H]1C[C@@H]2CCCC[C@@H]2N1C(=O)[C@H](N)CCCNC(=N)N)C(=O)N[C@@H](Cc1ccc(I)cc1)C(N)=O` [rOicPaF(p-I), D-Arg-Oic-Pro-D-Ala-Phe(p-I)] (HELM PEPTIDE1{[dR].[O=C([C@@H]1C[C@@H]2CCCC[C@@H]2N1[*:1])[*:2]].P.[dA].[O=C([C@H](Cc1ccc(I)cc1)N[*:1])[*:2]].[am]}$$$$V2.0; N-terminus assumed), the “peptide concentration with significant prolongation (p<0.05) of the APTT” value in assay [1] was 25 µM. In addition, the “peptide concentration with significant prolongation (p<0.05) of the PT” value in assay [2] stood at 6.25 µM. The “peptide concentration with significant prolongation (p<0.05) of the TCT” value in assay [3] was 0.78 µM. In addition, in assay [4], the “Concentration of Peptide [mM] That Gives 100% Inhibition” value worked out at 0.023 mM and the “concentration that abolished γ-thrombin-induced platelet aggregation” value is 23 µM. Moreover, the Ki in assay [5] (listed as rOicPsF(p-I)) was 59.2 ± 13 µM. In addition, the “inhibition of thrombin-induced calcium mobilization” value in assay [6] (0.005 mM peptide) came to 36%. Further, the “inhibition of thrombin-induced calcium mobilization” value in assay [6] (0.02 mM peptide) is 88%.

These data come from patent US7879792B2, “Synthetic peptide inhibitors of thrombin and thrombin activation of protease activated receptors 1 and 4” (The Regents of the University of Michigan, priority 2005, dated 2011).
